Measurements taken from US20220235006A1, “PYRIDINE DERIVATIVES AS TMEM16A MODULATORS FOR USE IN THE TREATMENT OF RESPIRATORY CONDITIONS” (TMEM16A LIMITED, priority 2019, published 2022).
pEC50: −log10 of the molar value. In brackets after ≈: the same amount, converted by molar mass.

Assays:
[1] = Log D (pH7.4 shake flask); format: physicochemical; conditions: pH 7.4; 1-octanol/phosphate buffer shake flask; read-out: mLogD (pH 7.4)
Protocol: Phosphate buffer (1 M) was diluted to 20 mM with deionised water and adjusted to pH 7.4 with phosphoric acid or sodium hydroxide. 1-octanol and phosphate buffer (20 mM) were saturated overnight by tumbling. The two phases were separated using a separation funnel. 5 μL of 5 mM compound cassette was added to 495 μL of octanol-saturated buffer and 495 μL buffer saturated octanol in a 96-well plate (top concentration 50 μM). Plate was shaken for 1 h and centrifuged at 25° C. for 5 min. 200 μL of each phase was transferred to a separate plate. The octanol layer was sampled first to avoid cross contamination. 5 μL of the solutions were transferred to 495 μL of quench solution* (max concentration 0.5 μM). In addition, 40 μL of buffer solution was added to 360 μL of quench solvent (max concentration 5 μM). Samples were analysed by LC-MS/MS. Benchmarking against a calibration curve for each compound and with reference to the control compounds sulpride, diclofenac, chlorpromazine and tamoxifen. *Quench solution was a 1:3:1 mixture (v/v/v) of Acetonitrile containing 0.1% formic acid and imipramine/labetalol, 200 nM:Acetonitrile:Water.

[2] = Kinetic solubility determination (high throughput); format: physicochemical; conditions: kinetic from dmso stock, sterile water, 5% DMSO, room temperature
Protocol: Test compounds (10 μL; 20 mM DMSO solution) were added to sterile water (190 μL) in triplicate and shaken at 300 rpm at room temperature. After 90 min. the test compounds were filtered by centrifuge (5 min. at 3000 rpm) to obtain the aqueous filtrate. Acetonitrile (20 μL) was dispensed into clean 96-well UV/VIS analysis plate and aqueous filtrate (80 μL) added and the plate analysed for test compound concentration using a Molecular Devices SPECTRAmax® plus microplate reader at the following wavelengths: (280, 300, 320, 340, 360, 800 nm). […] The diluted filtrate (80 μL) was then added to acetonitrile (20 μL) and the plate analysed. as previously.

[3] = target: T1, human TMEM16A (TMEM16Aabc variant) (Homo sapiens, UniProt Q5XXA6, DEL476-501); test: Automated whole-cell patch clamp (Qpatch) TMEM16A potentiator assay in recombinant FRT cells; format: cell-based; conditions: for activation at 3.33 µM: percentage increase of baseline TMEM16A current, minimum n = 2, read-out: % Potentiation @ 3.33 uM Avg; for pEC50: minimum n = 2
T1 sequence (Q5XXA6 with tags, fused parts or gaps isoform Q5XXA6-5 DEL539-564): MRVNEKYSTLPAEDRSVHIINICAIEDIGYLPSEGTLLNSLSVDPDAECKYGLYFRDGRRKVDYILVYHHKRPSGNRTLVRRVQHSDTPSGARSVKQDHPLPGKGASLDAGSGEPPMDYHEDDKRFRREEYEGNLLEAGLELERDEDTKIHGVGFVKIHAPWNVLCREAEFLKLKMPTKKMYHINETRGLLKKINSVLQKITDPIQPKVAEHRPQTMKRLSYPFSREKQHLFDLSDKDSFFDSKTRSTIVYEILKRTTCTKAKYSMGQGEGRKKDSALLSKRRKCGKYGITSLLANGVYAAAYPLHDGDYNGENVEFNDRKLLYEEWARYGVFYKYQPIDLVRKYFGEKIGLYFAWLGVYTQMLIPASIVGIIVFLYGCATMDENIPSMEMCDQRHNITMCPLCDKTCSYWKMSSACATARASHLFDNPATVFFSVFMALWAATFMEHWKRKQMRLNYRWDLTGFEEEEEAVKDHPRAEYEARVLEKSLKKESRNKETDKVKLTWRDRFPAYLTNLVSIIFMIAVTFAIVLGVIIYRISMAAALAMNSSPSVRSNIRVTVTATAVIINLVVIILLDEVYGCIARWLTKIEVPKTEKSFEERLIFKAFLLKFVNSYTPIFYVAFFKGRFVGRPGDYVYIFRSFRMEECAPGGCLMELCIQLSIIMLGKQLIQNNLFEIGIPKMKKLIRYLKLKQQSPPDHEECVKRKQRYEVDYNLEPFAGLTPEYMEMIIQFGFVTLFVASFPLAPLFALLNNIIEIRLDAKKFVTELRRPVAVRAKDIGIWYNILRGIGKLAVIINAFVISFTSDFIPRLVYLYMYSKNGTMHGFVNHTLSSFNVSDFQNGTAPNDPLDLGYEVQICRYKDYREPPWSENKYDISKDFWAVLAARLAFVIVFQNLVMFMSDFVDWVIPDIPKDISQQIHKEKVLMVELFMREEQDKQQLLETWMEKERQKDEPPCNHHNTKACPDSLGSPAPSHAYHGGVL
How it was run: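 FRT cells stably expressing human TMEM16Aabc, whole-cell automated patch clamp with intracellular Ca2+ buffered for ~20% maximal current (EC20). Held at −70 mV, step to +70 mV/ramp at 0.05 Hz, cumulative compound additions of 5 min each. Peak +70 mV current increase expressed as % potentiation of baseline.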

Structure (SMILES)	logD [1]	solubility kinetic at 90 min [2] [µg/mL]	activation at 3.33 µM [3] [%]	pEC50 [3]
CC(C)(CO)c1cc(F)c(CC(=O)Nc2ccnc(C(=O)N[C@H]3CCC[C@@H]3O)c2)cc1O [Example 12.2, 4-[[2-[2-Fluoro-5-hydroxy-4-(2-hydroxy-1,1-dimethyl-ethyl)phenyl]acetyl]amino]-N-[(1S,2S)-2-hydroxycyclopentyl]pyridine-2-carboxamide]	2.6	296 (≈ 664 µM)	142	6.62
CC1(NC(=O)c2cc(NC(=O)Cc3cc(O)c(C(C)(C)CO)cc3Cl)ccn2)CC(F)(F)C1 [Example 15.2, 4-[[2-[2-Chloro-5-hydroxy-4-(2-hydroxy-1,1-dimethyl-ethyl)phenyl]acetyl]amino]-N-(3,3-difluoro-1-methyl-cyclobutyl)pyridine-2-carboxamide]	> 4.2	44 (≈ 91.3 µM)	195	7.44
CC(C)(CO)c1cc(F)c(CC(=O)Nc2ccnc(C(=O)NC3(C(F)(F)F)CC3)c2)c(F)c1O [Example 16.4, 4-[[2-[2,6-Difluoro-3-hydroxy-4-(2-hydroxy-1,1-dimethyl-ethyl)phenyl]acetyl]amino]-N-[1-(trifluoromethyl)cyclopropyl]pyridine-2-carboxamide]	3.6	75 (≈ 154 µM)	280	7.74
